According to the NIST ThermoML archive (doi:10.1016/j.jct.2016.03.026):

Assay: xn = mol fraction of the nth substance listed
Conditions: Fluid (supercritical or subcritical phases), x1 = 0.97; for speed of sound: Frequency=5 MHz, Pulse-echo method; for mass density: 283.15 K, Vibrating tube method

O=C=O [carbon dioxide] + CO
speed of sound [m/s]
Conditions | 273.15 K | 283.14 K
14010 kPa | – | 615.2
20000 kPa | – | 679.8
25010 kPa | – | 725
29940 kPa | – | 763.8
34980 kPa | – | 799.7
39940 kPa | – | 831.8
39990 kPa | 875.6 | –
44950 kPa | 903.5 | –
45090 kPa | – | 862.8
49960 kPa | 929.9 | –
50150 kPa | – | 890.9
54970 kPa | 954.7 | –
55020 kPa | – | 916.3
59830 kPa | – | 940.2
60000 kPa | 978.4 | –
64950 kPa | 1000.7 | 964.2
69990 kPa | 1022.2 | –
70150 kPa | – | 987.4
74930 kPa | 1042.5 | –
74970 kPa | – | 1007.9
79680 kPa | – | 1027.1
80120 kPa | 1062.9 | –
90140 kPa | 1100 | –
90230 kPa | – | 1067.9
99950 kPa | – | 1102.7
99970 kPa | 1134.2 | –
109900 kPa | – | 1136.3
110030 kPa | 1167 | –
120080 kPa | – | 1168.8
120150 kPa | 1198.3 | –
139940 kPa | 1255 | –
140090 kPa | – | 1227.7
159790 kPa | 1307.2 | –
159980 kPa | – | 1281
180050 kPa | – | 1330.2
180530 kPa | 1357.4 | –

Conditions | mass density [kg/m3]
5300 kPa | 882.11
5325 kPa | 882.5
5350 kPa | 882.83
5375 kPa | 883.08
5400 kPa | 883.4
5425 kPa | 883.67
5450 kPa | 883.98
5475 kPa | 884.26
5500 kPa | 884.47
5525 kPa | 884.8
5550 kPa | 885.04
5575 kPa | 885.37
5600 kPa | 885.62
5625 kPa | 885.95
5650 kPa | 886.26
5675 kPa | 886.49
5700 kPa | 886.8
5725 kPa | 887.09
5750 kPa | 887.39
5775 kPa | 887.67
5800 kPa | 888.01
5825 kPa | 888.24
5850 kPa | 888.54
5875 kPa | 888.77
5900 kPa | 889.08
5925 kPa | 889.31
5950 kPa | 889.55
5975 kPa | 889.92
6000 kPa | 890.13
6025 kPa | 890.33
6050 kPa | 890.62
6075 kPa | 890.95
6100 kPa | 891.19
6125 kPa | 891.52
6150 kPa | 891.86
6175 kPa | 892.08
6200 kPa | 892.35
6225 kPa | 892.62
6250 kPa | 892.89
6275 kPa | 893.14
6300 kPa | 893.45
6325 kPa | 893.63
6350 kPa | 893.89
6375 kPa | 894.18
6400 kPa | 894.43
6425 kPa | 894.67
6450 kPa | 894.92
6475 kPa | 895.17
6500 kPa | 895.37
6525 kPa | 895.62
6550 kPa | 895.96
6575 kPa | 896.11
6600 kPa | 896.41
6625 kPa | 896.62
6650 kPa | 896.9
6675 kPa | 897.02
6700 kPa | 897.4
6725 kPa | 897.56
6750 kPa | 897.77
6775 kPa | 898.06
6800 kPa | 898.37
6825 kPa | 898.6
6850 kPa | 898.87
6875 kPa | 899.09
6900 kPa | 899.3
6925 kPa | 899.5
6950 kPa | 899.65
6975 kPa | 899.77
7000 kPa | 899.79
7025 kPa | 899.99
7050 kPa | 900.2
7075 kPa | 900.45
7100 kPa | 900.68
7125 kPa | 900.92
7150 kPa | 901.15
7175 kPa | 901.36
7200 kPa | 901.57
7225 kPa | 901.84
7250 kPa | 902.09
7275 kPa | 902.25
7300 kPa | 902.49
7325 kPa | 902.74
7350 kPa | 902.98
7375 kPa | 903.16
7400 kPa | 903.45
7425 kPa | 903.64
7450 kPa | 903.9
7475 kPa | 904.05
7500 kPa | 904.3
7525 kPa | 904.46
7550 kPa | 904.69
7575 kPa | 904.94
7600 kPa | 905.11
7625 kPa | 905.36
7650 kPa | 905.61
7675 kPa | 905.8
7700 kPa | 906.04
7725 kPa | 906.26
7750 kPa | 906.42
7775 kPa | 906.67
7800 kPa | 906.89
7825 kPa | 907.08
7850 kPa | 907.32
7875 kPa | 907.57
7900 kPa | 907.73
7925 kPa | 908.06
7950 kPa | 908.15
7975 kPa | 908.39
8000 kPa | 908.68
8025 kPa | 908.88
8050 kPa | 909.06
8075 kPa | 909.27
8100 kPa | 909.45
8125 kPa | 909.7
8150 kPa | 909.86
8175 kPa | 910.09
8200 kPa | 910.33
8225 kPa | 910.56
8250 kPa | 910.76
8275 kPa | 910.96
8300 kPa | 911.17
8325 kPa | 911.44
8350 kPa | 911.66
8375 kPa | 911.83
8400 kPa | 912.07
8425 kPa | 912.24
8450 kPa | 912.4
8475 kPa | 912.59
8500 kPa | 912.85
8525 kPa | 913.06
8550 kPa | 913.26
8575 kPa | 913.46
8600 kPa | 913.66
8625 kPa | 913.87
8650 kPa | 914.07
8675 kPa | 914.29
8700 kPa | 914.39
8725 kPa | 914.62
8750 kPa | 914.82
8775 kPa | 915.04
8800 kPa | 915.26
8825 kPa | 915.43
8850 kPa | 915.64
8875 kPa | 915.83
8900 kPa | 916
8925 kPa | 916.16
8950 kPa | 916.35
8975 kPa | 916.53
9000 kPa | 916.73
9025 kPa | 916.93
9050 kPa | 917.12
9075 kPa | 917.31
9100 kPa | 917.55
9125 kPa | 917.75
9150 kPa | 917.9
9175 kPa | 918.13
9200 kPa | 918.33
9225 kPa | 918.6
9250 kPa | 918.7
9275 kPa | 918.95
9300 kPa | 919.11
9325 kPa | 919.31
9350 kPa | 919.52
9375 kPa | 919.69
9400 kPa | 919.87
9425 kPa | 920.09
9450 kPa | 920.32
9475 kPa | 920.47
9500 kPa | 920.65
9525 kPa | 920.85
9550 kPa | 921.09
9575 kPa | 921.21
9600 kPa | 921.39
9625 kPa | 921.56
9650 kPa | 921.81
9675 kPa | 921.97
9700 kPa | 922.14
9725 kPa | 922.38
9750 kPa | 922.58
9775 kPa | 922.71
9800 kPa | 922.94
9825 kPa | 923.15
9850 kPa | 923.28
9875 kPa | 923.48
9900 kPa | 923.69
9925 kPa | 923.77
9950 kPa | 924
9975 kPa | 924.18
10000 kPa | 924.34
10025 kPa | 924.53
10050 kPa | 924.71
10075 kPa | 924.83
10100 kPa | 925.08
10125 kPa | 925.24
10150 kPa | 925.41
10175 kPa | 925.57
10200 kPa | 925.75
10225 kPa | 926.06
10250 kPa | 926.06
10275 kPa | 926.3
10300 kPa | 926.47
10325 kPa | 926.69
10350 kPa | 926.79
10375 kPa | 927.06
10400 kPa | 927.17
10425 kPa | 927.34
